# Measured values: patent publication US9682947B2, “Substituted lactones for treating cancer” (KUNMING INSTITUTE OF BOTANY, CHINESE ACADEMY OF SCIENCES, priority 2013, dated 2017)
# Entries after “also recorded” stand apart in the source; their conditions may differ.
# Columns and labels:
# PHLPP1 = test: Western blot, PHLPP1 protein expression in HCT116 cells; assay type: cell-based, human; settings: HCT116, 16 μM
# Procedure: (§1) Cellular protein extracts were prepared with cell lysis buffer (10 mM Tris-HCl, pH 7.4, 1% SDS, 1 mM Na3VO4) and resolved by SDS-PAGE. The membranes were probed with the indicated primary antibodies and HRP-conjugated secondary antibody. Signals were detected with the ECL western-blotting system as described in our previous reports (1.27, 1.28).
# (§2) See Example 1 for the method.
# p21 promoter = test: p21 promoter-driven luciferase reporter in Cl41 cells; assay type: cell-based, mouse; settings: Cl41, 16 μM, time-dependent
# HCT116 p21−/− cells = test: Flow cytometry assay with propidium iodide staining (apoptosis); assay type: cell-based, human; settings: 32 μM, 48 h
# Procedure: (§3) Flow cytometry assay was assessed as previously described in reference (1.26). After the time periods indicated, the Compound X-treated and control cells were harvested and fixed in 75% ethanol. The fixed cells were stained in the buffer containing 0.1% Triton X-100, 0.2 mg/ml RNase A, and 50 μg/ml PI (propidium iodide) at 4° C. for 1 hour and were then examined by flow cytometry utilizing an Epics XL FACS (Beckman Coulter Inc., Miami, Fla.) and EXPO 32 software as described previously (1.26).
# HCT116 Bax−/− cells [1] = test: as above; assay type: cell-based, human; settings: 48 h
# Procedure: as §3
# HCT116 p53−/− cells = test: as above; assay type: cell-based, human; settings: 48 h
# Procedure: as §3
# caspase-3 and PARP = test: Western Blotting, cleavage of caspase 3 and PARP; assay type: cell-based, human; settings: 16 μM, colon cancer cells
# Procedure: as §1
# p53 = test: p53-luciferase reporter (PG13-luc) in Cl41 cells; assay type: cell-based, mouse; settings: Cl41, 16 μM
# PUMA = test: Western Blot, PUMA induction in WT and p53−/− HCT116 cells; assay type: cell-based, human; settings: 16 μM
# Procedure: as §1, §2
# FoxO3a = FoxO3a transcription activity dependent luciferase (4×DBE) reporter assay in HCT116 cells; assay type: cell-based, human; settings: HCT116, 16 μM
# Procedure: (§4) HCT116 cells stably expressing the luciferase reporter constructs were seeded into 96-well plates (5×10^3/well) and subjected to compound treatment when the cultures reached 80˜90% confluence. Cellular lysates were prepared at the indicated time points, and the luciferase activities were determined by a luminometer (Wallac 1420 Victor 2 multilabel counter system) as described in our previous studies (2.24, 2.25). The results are expressed as a relative activity that is normalized to the control cells without treatment.
# AKT = test: Western blot, AKT phosphorylation in HCT116 cells; assay type: cell-based, human; settings: HCT116, 16 μM
# Procedure: as §1, §2
# p21 and p53 = test: Western Blot, p21 and p53 expression in Cl41 cells; assay type: cell-based, mouse; settings: Cl41, 2 to 32 μM, 24 hours
# Procedure: as §1, §2
# DLD-1 cells [2] = test: Flow cytometry assay with propidium iodide staining (apoptosis); assay type: cell-based, human; settings: DLD-1, 16 μM or 32 μM, 48 hours
# Procedure: as §3
# (§5) Flow cytometry assay was carried out as described in Example 1.
# HT-29 cells [3] = test: as above; assay type: cell-based, human; settings: HT-29, 16 μM or 32 μM, 48 hours
# Procedure: as §3, §5
# HCT116 wild-type cells = test: as above; assay type: cell-based, human; settings: 48 h; for cell apoptosis: HCT116 WT
# Procedure: as §3, §5
# Cl41 cells [4] = test: Cell cycle assay (flow cytometry, PI); assay type: cell-based, mouse; settings: 24 h, control 63.49%
# Procedure: Cell cycle assay was assessed as previously described in reference (3.16). After the time periods indicated, the Compound X-treated and control cells were harvested and fixed in 75% ethanol. The fixed cells were stained with propidium iodide (PI) solution at 4° C. for 30 minutes and were then examined by flow cytometry utilizing an Epics XL FACS (Beckman Coulter Inc., Miami, Fla.) and EXPO 32 software as described previously (3.17).
# To assess whether the inhibitory effects of Compound F on growth inhibition of Cl41 cells is mediated via alteration in cell cycle regulation, the inventors evaluated the effect of Compound F2 on cell cycle distribution. The Cl41 cells were synchronized by 0.1% FBS medium for 24 h, and then cultured with 1% FBS medium containing 8, 16, 32 μM of Compound F2 for 24 h.
# p53, p21 and Bax = test: Western Blotting, p53, p21 and Bax expression in HCT116 cells; assay type: cell-based, human; settings: HCT116 WT, 16 μM
# Procedure: as §1
# DLD-1 cells [5] = test: Anchorage-independent growth (soft agar) assay; assay type: cell-based, human; settings: DLD-1 (p53 mutant), 16, 32 μM, soft agar 2 weeks
# Procedure: (§6) Anchorage-independent growth (soft agar assay) in soft agar was carried out as described in inventors' previous studies (1.25). Briefly, 1×10^4 cells mixed with various concentration of Compound X in 10% FBS BME containing 0.33% soft agar, was seeded over bottom layer of 0.5% agar in 10% FBS BME in each well of 6-well plates. […]
# (§7) Anchorage-independent growth (soft agar assay) in soft agar was carried out as described in Example 1.
# HCT116 PUMA−/− cells [6] = test: Anchorage-independent growth (soft agar) assay; assay type: cell-based, human; settings: HCT116 PUMA−/−, 16, 32 μM, soft agar 2 weeks
# Procedure: as §6, §7
# HT-29 cells [7] = test: Anchorage-independent growth (soft agar) assay; assay type: cell-based, human; settings: HT-29 (p53 mutant), 16, 32 μM, soft agar 2 weeks
# Procedure: as §6, §7
# HCT116 cells = test: Anchorage-independent growth (soft agar) assay; assay type: cell-based, human; settings: HCT116, 16 and 32 μM, soft agar 2 weeks
# Procedure: as §6, §7
# HCT116 PUMA−/− cells [8] = test: Flow cytometry assay with propidium iodide staining (apoptosis); assay type: cell-based; settings: Homo sapiens, HCT-116, 48 h, read-out: inhibition of cell apoptosis in PUMA−/− cells as compared to HCT116 WT
# Procedure: as §3, §5
# puma promoter = test: PUMA promoter-driven luciferase reporter assay in HCT116 cells; assay type: cell-based, human; settings: HCT116, 16 μM
# Procedure: as §4
# HCT116 Bax−/− cells [9] = test: Anchorage-independent growth (soft agar) assay; assay type: cell-based, human; settings: soft agar 14 days
# Procedure: as §6
# Cl41 cells [10] = test: EGF-induced cell transformation assay in soft agar; assay type: cell-based, mouse; settings: Cl41, 20 ng/ml EGF, dose-dependent
# Procedure: Anchorage-independent growth in soft agar was performed as described previously (3.15). Briefly, 2×10^4 cells mixed with various concentration of Compound X and 20 ng/ml EGF in 10% FBS […] (BMEM) containing 0.33% soft agar, was seeded over bottom layer of 0.5% agar in 10% FBS BMEM in each well of 6-well plates. The plates were incubated in 5% CO2 incubator at 37° C. for 3 weeks, and the colonies with more than 16 cells of each were scored and presented as colonies/1×10^4 cells.
# leukemia cell = settings: involving activation of caspase-3 and downregulation of Bcl-2 mRNA; cited from earlier work
# [11] = mice; cited from earlier work
smiles,measurement,setting,value
CC(=O)O[C@H]1C=CC(=O)O[C@H]1[C@@H](O)[C@H](F)c1ccccc1 [Compound F2],PHLPP1 protein expression,PHLPP1,upregulated
same,p21 promoter transcription activity,p21 promoter,obvious induction of p21 promoter transcription activity
same,cell apoptosis,HCT116 p21−/− cells,80.31%
same,cell apoptosis,HCT116 Bax−/− cells [1]; 16 μM,1.00%
same,cell apoptosis,HCT116 Bax−/− cells [1]; 32 μM,0.69%
same,cell apoptosis,HCT116 p53−/− cells; 16 μM,7.41%
same,cell apoptosis,HCT116 p53−/− cells; 32 μM,14.18%
same,cleaved caspases-3 and PARP,caspase-3 and PARP,detected in a time-dependent manner from 24 h to 48 h; also recorded: detected in a time-dependent manner from 6 hours to 48 hours
same,p53 transactivation,p53,significantly induced p53 transactivation
same,"PUMA protein induction, time",PUMA,≤ 12 h
same,FoxO3a transactivation,FoxO3a,significantly induced FoxO3a transactivation
same,phosphorylation of AKT at Ser 473,AKT,inhibited after exposure to Compound F2 for 12 h or longer
same,expression levels of p21 and p53,p21 and p53,increased
same,sub-G1 DNA content (apoptotic peak) vs vehicle control,DLD-1 cells [2],substantial increase in sub-G1 DNA content
same,sub-G1 DNA content (apoptotic peak) vs vehicle control,HT-29 cells [3],substantial increase in sub-G1 DNA content
same,sub-G1 DNA content (apoptotic peak) vs vehicle control,"HCT116 wild-type cells; HCT116, 16 μM or 32 μM",substantial increase in sub-G1 DNA content
same,cell apoptosis,HCT116 wild-type cells; 16 μM,18.30%
same,cell apoptosis,HCT116 wild-type cells; 32 μM,26.27%
same,proportion of cells in the G0/G1 phase,Cl41 cells [4]; 8 μM,77.74%
same,proportion of cells in the G0/G1 phase,Cl41 cells [4]; 16 μM,79.79%
same,proportion of cells in the G0/G1 phase,Cl41 cells [4]; 32 μM,80.13%
same,"p53, p21 and Bax protein levels","p53, p21 and Bax",increasing as time-dependent manner
same,anchorage-independent growth,DLD-1 cells [5],inhibit anchorage-independent growth
same,"colony formation, sensitivity vs wild type cells",HCT116 PUMA−/− cells [6],significantly more resistant
same,anchorage-independent growth,HT-29 cells [7],inhibit anchorage-independent growth
same,anchorage-independent growth (size and number of colonies) vs vehicle,HCT116 cells,significantly restrained the size and number of colonies; also recorded: significantly decreased anchorage-independent growth
same,inhibition at 16 µM,HCT116 PUMA−/− cells [8],> 90%
same,puma promoter transcription activity,puma promoter,markedly induction of puma promoter transcription activity
same,colony formation,HCT116 Bax−/− cells [9],only partially inhibit colony formation
same,EGF-induced cell transformation and colony formation on soft agar,Cl41 cells [10],significantly repressed EGF-induced cell transformation and colony formation
"CC(=O)O[C@H]1C=CC(=O)O[C@H]1C1OC1c1ccccc1 (some centres unmarked) [cheliensisin A, Cheliensisin A]",leukemia cell apoptosis,leukemia cell,induced leukemia cell apoptosis
same,in vivo antitumor effect,[11],potent in vivo antitumor effect
